# Publication PMC3618660 (Journal of medicinal chemistry, 2013)
# Legend:
# [1] = biological target: delta opioid receptor (DOR) (Rattus norvegicus, UniProt P33533); assay: antagonism of DPDPE-stimulated GTPγS binding at DOR; assay type: biochemical
# mu opioid receptor (MOR) = mu opioid receptor (MOR) (Rattus norvegicus, UniProt P33535); assay: [3H]diprenorphine competitive displacement binding, C6-MOR membranes
# C57BL/6 mice = assay: mouse warm water tail withdrawal; assay type: in vivo
# Chain of delta opioid receptor (DOR) (P33533 whole entry): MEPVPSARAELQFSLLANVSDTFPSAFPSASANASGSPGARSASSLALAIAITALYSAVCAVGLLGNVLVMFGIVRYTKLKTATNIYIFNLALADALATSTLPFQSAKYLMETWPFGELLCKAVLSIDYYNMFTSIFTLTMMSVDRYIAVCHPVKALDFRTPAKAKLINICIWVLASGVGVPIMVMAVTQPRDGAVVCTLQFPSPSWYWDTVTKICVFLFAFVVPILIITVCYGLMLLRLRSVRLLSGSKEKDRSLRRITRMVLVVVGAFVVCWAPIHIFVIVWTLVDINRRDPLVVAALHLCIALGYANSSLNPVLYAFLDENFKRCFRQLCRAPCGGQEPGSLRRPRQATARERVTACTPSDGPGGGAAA
# Chain of mu opioid receptor (MOR) (P33535 whole entry): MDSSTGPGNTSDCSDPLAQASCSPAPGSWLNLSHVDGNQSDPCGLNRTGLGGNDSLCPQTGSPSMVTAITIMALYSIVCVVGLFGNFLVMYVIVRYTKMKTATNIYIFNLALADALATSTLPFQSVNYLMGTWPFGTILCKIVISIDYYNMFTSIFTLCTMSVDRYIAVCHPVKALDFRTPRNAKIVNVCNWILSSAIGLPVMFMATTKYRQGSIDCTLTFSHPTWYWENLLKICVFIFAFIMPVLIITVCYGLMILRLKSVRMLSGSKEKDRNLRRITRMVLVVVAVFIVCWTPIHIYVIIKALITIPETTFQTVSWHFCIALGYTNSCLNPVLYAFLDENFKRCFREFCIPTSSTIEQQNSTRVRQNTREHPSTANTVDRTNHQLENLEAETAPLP
smiles,measurement,setting,value
"Cc1cc(O)cc(C)c1C[C@H](N)C(=O)NC1CCNc2ccc(Cc3ccc4ccccc4c3)cc21 (stereo partly drawn) [Compound 15c, (2S)-2-Amino-3-(4-hydroxy-2,6-dimethylphenyl)-N-(6-(naphthalen-2-ylmethyl)-1,2,3,4-tetrahydroquinolin-4-yl)propanamide]",Kb,[1],34.3 nM
"Cc1cc(O)cc(C)c1C[C@H](N)C(=O)N[C@@H]1CCNc2ccc(Cc3cccc4ccccc34)cc21 [Compound 15b, (2S)-2-Amino-3-(4-hydroxy-2,6-dimethylphenyl)-N-(6-(naphthalen-1-ylmethyl)-1,2,3,4-tetrahydroquinolin-4-yl)propanamide]",Ki,mu opioid receptor (MOR),0.76 ± 0.14 nM
Cc1cc(O)cc(C)c1C[C@H](N)C(=O)N[C@@H]1CCNc2ccc(Cc3ccccc3)cc21 [1 (4R)],ED50,"C57BL/6 mice; Mus musculus, ip, read-out: ED50, tail withdrawal latency",~6 µmol/kg
same,antinociceptive potency compared with morphine,C57BL/6 mice; mouse WWTW after intraperitoneal administration,approximately equipotent to morphine
same,time maximal antinociception is maintained,"C57BL/6 mice; mouse WWTW time course, 10 mg/kg ip",approximately 60 minutes
same,effect of naltrexone pretreatment on dose/response curve,"C57BL/6 mice; naltrexone 1mg/kg ip, 30 min pretreatment, mouse WWTW",rightward shift
